Assay results as given in patent US20240425478A1, “CYCLOPENTYLPYRAZOLE CDK2 INHIBITORS” (Genentech, Inc., priority 2021, published 2024).
Like-named read-outs stand apart in the source and are kept apart here.

Columns and labels:
[1] = target: T1, Cyclin Dependent Kinase 4/Cyclin D3 (CDK4-cycD3) (Homo sapiens, UniProt P11802); experiment: CDK4-cycD3 TR-FRET (LANCE) enzyme assay; format: biochemical; conditions: for Ki: Table O, enzymatic assay; for FS CDK4/CDK2: fold selectivity, enzymatic Ki ratio
T1 construct: purchased Carna Biosciences 04-105
T1 sequence (P11802 whole entry): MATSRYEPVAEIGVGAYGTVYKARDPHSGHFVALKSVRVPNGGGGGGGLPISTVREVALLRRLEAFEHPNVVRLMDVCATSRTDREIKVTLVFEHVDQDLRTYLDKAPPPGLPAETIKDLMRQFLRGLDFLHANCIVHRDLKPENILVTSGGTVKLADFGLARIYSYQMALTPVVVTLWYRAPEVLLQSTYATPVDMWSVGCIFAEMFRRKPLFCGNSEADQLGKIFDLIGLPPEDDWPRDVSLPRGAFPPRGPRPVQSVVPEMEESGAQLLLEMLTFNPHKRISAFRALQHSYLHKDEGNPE
T1 sequence (P30281 whole entry partner): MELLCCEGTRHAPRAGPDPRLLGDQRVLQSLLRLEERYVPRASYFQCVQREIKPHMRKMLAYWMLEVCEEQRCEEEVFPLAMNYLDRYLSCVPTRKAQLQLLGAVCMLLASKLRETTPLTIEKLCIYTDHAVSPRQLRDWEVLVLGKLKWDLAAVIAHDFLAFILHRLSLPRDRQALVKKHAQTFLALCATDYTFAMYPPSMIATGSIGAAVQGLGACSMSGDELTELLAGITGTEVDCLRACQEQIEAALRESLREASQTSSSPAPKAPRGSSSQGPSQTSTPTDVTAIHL
How it was run: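 Compound dose responses pre-incubated 30 min with enzyme mix in 50 mM HEPES pH 7.5, 10 mM MgCl2, 2 mM TCEP, 0.05% BGG, 0.01% Brij 35. Reaction quenched with EDTA (15 mM final); Eu-anti-phospho-4E-BP1 TR-FRET detection, acceptor/donor ratio. Ki derived by Morrison equation.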

[2] = target: T2, Cyclin Dependent Kinase 2/Cyclin E1 (CDK2-cycE1) (Homo sapiens, UniProt P24941); experiment: CDK2-cycE1 TR-FRET (LANCE) enzyme assay; format: biochemical; conditions: for Ki: enzymatic assay, read-out: CDK2 Ki; for FS CDK1/CDK2 / FS CDK4/CDK2: fold selectivity; for increased fold-selectivity CDK4/CDK2 over Comparator C: (+) sign after FS CDK4/CDK2;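 as to improvement in potency against CDK2 (Ki) over Comparator C: fold lower CDK2 Ki than comparator c (Ki 0.032 µM)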
T2 construct: purchased ProQinase 0050-0055-1
How it was run: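 Kinase reaction buffer: 50 mM HEPES pH 7.5, 10 mM MgCl2, 2 mM TCEP, 0.05% BGG, 0.01% Brij 35, with 30 min compound–enzyme pre-incubation.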

[3] = test system: OVISE (JCRB1043, CCNE1-amplified); experiment: OVISE EdU incorporation cell proliferation assay (CDK2-dependent); format: cell-based; conditions: for IC50: cellular assay, read-out: CDK2 OVISE IC50; for FS SKOV-3/OVISE: fold selectivity; for increased fold-selectivity SKOV-3/OVISE over Comparator C: (+) sign after FS SKOV-3/OVISE; for improvement in CDK2 OVISE cell potency over Comparator C: Comparator C 5.5 μM
How it was run: (§1)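 EdU incorporation (0.5 μM final, last 8 h) follows a 16 h compound exposure at 37 °C, 5% CO2 in RPMI plus 10% FBS, 0.5% DMSO. After fixation, imaging scores EdU-positive cells; a 4-parameter logistic fit of that fraction gives IC50.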

SKOV-3 (ATCC HTB-77) = experiment: SKOV-3 EdU incorporation cell proliferation assay (CDK4/6-dependent); format: cell-based; conditions: for IC50: Homo sapiens, cellular assay, read-out: CDK4/6 SKOV-3 IC50; for FS SKOV-3/OVISE: fold selectivity, cellular IC50 ratio
How it was run: as §1

[4] = target: T3, Cyclin Dependent Kinase 1/Cyclin A2 (CDK1-cycA2) (Homo sapiens, UniProt P06493); experiment: CDK1-cycA2 TR-FRET (Lance) enzyme assay; format: biochemical; conditions: for Ki: Table O, enzymatic assay; for FS CDK1/CDK2: fold selectivity, enzymatic Ki ratio
T3 construct: purchased ProQinase 0134-0054-1
T3 sequence (P06493 whole entry): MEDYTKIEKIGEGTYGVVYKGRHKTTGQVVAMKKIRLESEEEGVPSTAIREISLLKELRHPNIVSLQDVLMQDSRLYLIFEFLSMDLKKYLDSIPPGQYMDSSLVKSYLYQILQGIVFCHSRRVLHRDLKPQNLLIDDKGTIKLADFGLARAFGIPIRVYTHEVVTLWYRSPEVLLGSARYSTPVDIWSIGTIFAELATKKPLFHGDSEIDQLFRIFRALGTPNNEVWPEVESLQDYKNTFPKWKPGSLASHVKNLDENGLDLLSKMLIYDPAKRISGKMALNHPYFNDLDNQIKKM
T3 sequence (P20248 whole entry partner): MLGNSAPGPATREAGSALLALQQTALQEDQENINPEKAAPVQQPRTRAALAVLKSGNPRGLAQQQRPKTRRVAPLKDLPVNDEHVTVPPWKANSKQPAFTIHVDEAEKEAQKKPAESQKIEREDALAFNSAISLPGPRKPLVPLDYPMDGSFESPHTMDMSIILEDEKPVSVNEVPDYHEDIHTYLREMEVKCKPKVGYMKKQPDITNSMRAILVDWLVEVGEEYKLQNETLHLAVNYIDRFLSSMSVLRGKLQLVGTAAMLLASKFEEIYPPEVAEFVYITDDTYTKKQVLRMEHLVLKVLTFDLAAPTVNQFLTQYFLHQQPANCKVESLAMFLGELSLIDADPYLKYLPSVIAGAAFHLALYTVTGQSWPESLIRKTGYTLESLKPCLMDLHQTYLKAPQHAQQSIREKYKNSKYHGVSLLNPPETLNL
How it was run: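 TR-FRET (Lance) detection of phospho-4E-BP1 with a europium-labelled antibody after EDTA quench (15 mM final); signal taken as acceptor/donor ratio. Enzyme and compound were pre-incubated 30 min in HEPES pH 7.5 buffer with MgCl2, TCEP, BGG and Brij 35. Ki derived by Morrison fit.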

[5] = Table O, enzymatic CDK1 Ki over CDK2 Ki
[6] = Table O, enzymatic CDK4 Ki over CDK2 Ki
[7] = Table O, cellular SKOV-3 IC50 over OVISE IC50
[8] = Table Q, in brackets after OVISE IC50

Row | SMILES | Ki [1] [µM] | improvement in potency against CDK2 (Ki) over Comparator C [2] [fold] | Ki ([2]; Table O) [µM] | FS CDK1/CDK2 [2, 5] | FS CDK4/CDK2 [2, 6] | increased fold-selectivity CDK4/CDK2 over Comparator C ([2]; Table Q) | Ki ([2]; Table Q) [µM] | FS CDK1/CDK2 ([2]; Table Q, enzymatic) | FS CDK4/CDK2 ([2]; Table Q, enzymatic) | IC50 ([3]; Table O) [µM] | FS SKOV-3/OVISE [3, 7] | increased fold-selectivity SKOV-3/OVISE over Comparator C ([3]; Table Q) | FS SKOV-3/OVISE ([3]; Table Q, cellular) | improvement in CDK2 OVISE cell potency over Comparator C [3, 8] [fold] | IC50 (SKOV-3 (ATCC HTB-77); SK-OV-3, Table O) [µM] | IC50 (SKOV-3 (ATCC HTB-77); SK-OV-3, Table Q) [µM] | Ki [4] [µM] | other results
1 | Cc1ncncc1Nc1cc([C@H]2CC[C@@H](OC(=O)NC(C)C)C2)[nH]n1 [Example 2U, (1R,3S)-3-(3-((4-methylpyrimidin-5-yl)amino)-1H-pyrazol-5-yl)cyclopentyl isopropylcarbamate] | 1.8 | 2 | 0.015 | 37 | 120 | (+) (The (+) sign in Table Q signifies desirable increased fold-selectivity of the exemplary compounds over Comparator C) | 0.015 | 37 | 120 | 0.4 | >50 | (+) (The (+) sign in Table Q signifies desirable increased fold-selectivity of the exemplary compounds over Comparator C) | > 50 | 13.8 | > 20 | > 20 | 0.56 | 
2 | Cc1ncc(Nc2cc([C@H]3CC[C@@H](OC(=O)NC(C)C)C3)[nH]n2)c(C)n1 [Example 2W, (1R,3S)-3-(3-((2,4-dimethylpyrimidin-5-yl)amino)-1H-pyrazol-5-y1)cyclopentyl isopropylcarbamate] | 3.1 | 0.8 | 0.042 | 26 | 74 | (+) (The (+) sign in Table Q signifies desirable increased fold-selectivity of the exemplary compounds over Comparator C) | 0.042 | 26 | 74 | 2.7 | >7.4 | (+) (The (+) sign in Table Q signifies desirable increased fold-selectivity of the exemplary compounds over Comparator C) | > 7.4 | 2 | > 20 | > 20 | 1.1 | 
3 | COc1ncc(Nc2cc([C@H]3CC[C@@H](OC(=O)NC(C)C)C3)[nH]n2)c(C)n1 [Example 2X, (1R,3S)-3-(3-((2-methoxy-4-methylpyrimidin-5-yl)amino)-1H-pyrazol-5-yl)cyclopenty1 isopropylcarbamate] | 3.8 | 0.5 | 0.059 | 20 | 64 | (+) (The (+) sign in Table Q signifies desirable increased fold-selectivity of the exemplary compounds over Comparator C) | 0.059 | 20 | 64 | 2.8 | >7.1 | (+) (The (+) sign in Table Q signifies desirable increased fold-selectivity of the exemplary compounds over Comparator C) | > 7.1 | 2 | > 20 | > 20 | 1.2 | 
4 | COc1nc(C)ncc1Nc1cc([C@H]2CC[C@@H](OC(=O)NC(C)C)C2)[nH]n1 [Example 2Y, (1R,3S)-3-(3-((4-methoxy-2-methylpyrimidin-5-yl)amino)-1H-pyrazol-5-yl)cyclopentyl isopropylcarbamate] | 49 | 0.15 | 0.21 | 36 | 230 | (+) (The (+) sign in Table Q signifies desirable increased fold-selectivity of the exemplary compounds over Comparator C) | 0.21 | 36 | 230 | 16 | >1.3 |  | >1.3 | 0.18 | > 20 | > 20 | 7.5 | 
5 | O=C(NC1CCOCC1)O[C@@H]1CC[C@H](c2cc(Nc3cccnn3)n[nH]2)C1 [Example 3D, (1R,3S)-3-(3-(pyridazin-3-ylamino)-1H-pyrazol-5-yl)cyclopentyl (tetrahydro-2H-pyran-4-yl)carbamate] | 2.3 |  | 0.061 | 23 | 38 |  |  |  |  | 7.9 | >2.5 |  |  |  | > 20 |  | 1.4 | 
6 | CC1(NC(=O)O[C@@H]2CC[C@H](c3cc(Nc4cccnn4)n[nH]3)C2)COC1 [Example 3G, (1R,3S)-3-(3-(pyridazin-3-ylamino)-1H-pyrazol-5-yl)cyclopentyl (3-methyloxetan-3-yl)carbamate] | 0.73 |  | 0.0083 | 29 | 88 |  |  |  |  | 0.75 | >27 |  |  |  | > 20 |  | 0.24 | 
7 | Cc1cc(=O)n(C)nc1Nc1cc([C@H]2CC[C@@H](OC(=O)NC(C)(C)C)C2)[nH]n1 [Example 4C, (1R,3S)-3-(3-((1,4-dimethyl-6-oxo-1,6-dihydropyridazin-3-yl)amino)-1H-pyrazol-5-yl)cyclopentyl tert-butylcarbamate] | 0.58 |  | 0.0021 | 31 | 280 |  |  |  |  | 0.6 | 32 |  |  |  | 19 |  | 0.065 | FS CDK4/CDK2 increased over Comparator D, (+) sign ([1]; Table R): (+); FS CDK4/CDK2 ([1]; Table R): 280; FS CDK4/CDK2 increased over Comparator E, (+) sign ([1]; Table S): (+); FS CDK4/CDK2 ([1]; Table S): 280; Ki ([2]; Table R): 0.0021 µM; CDK2 Ki fold change in potency versus Comparator D ([2]; Table R, in brackets after CDK2 Ki): 1.3 fold; Ki ([2]; Table S): 0.0021 µM; CDK2 Ki fold change in potency versus Comparator E ([2]; Table S, in brackets after CDK2 Ki): 0.3 fold; CDK2 OVISE IC50 fold change in potency versus Comparator D ([3]; Table R, in brackets after OVISE IC50): 6 fold; CDK2 OVISE IC50 fold change in potency versus Comparator E ([3]; Table S, in brackets after OVISE IC50): 0.3 fold; selectivity for CDK2 over CDK4 compared with Comparator E (SKOV-3 (ATCC HTB-77); SKOV-3/OVISE fold-selectivity cellular assay data): increase in selectivity for CDK2 over CDK4; FS SKOV-3/OVISE increased over Comparator D, (+) sign (SKOV-3 (ATCC HTB-77); Table R): (+); FS SKOV-3/OVISE (SKOV-3 (ATCC HTB-77); Table R): 32; FS SKOV-3/OVISE increased over Comparator E, (+) sign (SKOV-3 (ATCC HTB-77); Table S): (+); FS SKOV-3/OVISE (SKOV-3 (ATCC HTB-77); Table S): 32; FS CDK1/CDK2 increased over Comparator D, (+) sign ([4]; Table R): (+); FS CDK1/CDK2 ([4]; Table R): 31; FS CDK1/CDK2 ([4]; Table S): 31
